# Values of other authors, collected in US20210400960A1, “INSECT REPELLENT COMPOSITION” (Mother Earth Dermatics (MED) GMBH, priority 2018, published 2021).
# Tested on: insects
# Conditions: depending on the concentration
smiles,measurement,value
"CCN(CC)C(=O)c1cccc(C)c1 [DEET, N,N-diethyl-m-toluamide]",Duration of repellent effect,6 to 8 h
